The source of these data is ChEMBL document CHEMBL5215011, “Isolation and Structure Elucidation of Compounds from Sesamum alatum and Their Antiproliferative Activity against Multiple Myeloma Cells” (J Nat Prod, 2022).

What all share (format): functional, cell-based
The subject of assay [1] is RPMI-8226. Briefly: Antiproliferative activity against human RPMI-8226 cells assessed as inhibition of cell proliferation incubated for 72 hrs by XTT assay. Conditions: RPMI-8226, 72 h. Background: Tetrazolium dyes change colour on reduction, which living cells bring about.
In assay [2] the test system is MM1.S. The experiment in a line: Antiproliferative activity against human MM1.S cells assessed as inhibition of cell proliferation incubated for 72 hrs by XTT assay.
The nature of assay [3]: Antiproliferative activity against human MM1.R cells assessed as inhibition of cell proliferation incubated for 72 hrs by XTT assay. The note with it: MM.1R.

Molecules are shown by their SMILES.

For orientation: IC50 means the concentration needed to halve the response being measured. As for `CC(C)=CC[C@@]12O[C@@H]1C(=O)c1c(O)ccc(O)c1C2=O`, the IC50 was 0.6 µM in assay [1], 0.7 µM in assay [2] and 0.9 µM in assay [3].

Turning to `CC(C)=CC[C@@]12O[C@@H]1C(=O)c1c(O)ccc(O[C@@H]3O[C@H](CO)[C@@H](O)[C@H](O)[C@H]3O)c1C2=O`, the figures for the concentration for half-maximal inhibition (IC50) in assay [1], in assay [2] and in assay [3] were 9.5 µM, 4.8 µM and 3.6 µM, respectively.

For `CC(C)=CC[C@@]12O[C@@H]1C(O)c1c(O)ccc(O)c1C2=O` (stereo partly drawn), in assay [1], the IC50 is 18.6 µM.

As for `CC(C)=CC[C@@H]1C(=O)c2c(O)ccc(O)c2[C@@H]1O`, the IC50 in assay [1] came to 27.5 µM.

With `CC(C)=CCC1=C(Cl)C(=O)c2c(O)ccc(O)c2C1=O`, the IC50 in assay [1] worked out at 12.9 µM.

With `CC(C)C[C@H](NC(=O)[C@H](Cc1ccccc1)NC(=O)c1cnccn1)B(O)O` [BORTEZOMIB], the IC50 worked out at 0.0056 µM in assay [1], 0.0032 µM in assay [2] and 0.0047 µM in assay [3].

On to `COC1=CC(=O)C=C(OC)C1=O` [2,6-DIMETHOXYQUINONE], for which the IC50 in assay [1] was 10.8 µM; in assay [2], 1.1 µM; in assay [3] it was 3 µM.

As to `CC(C)(O)/C=C\C(O)=C1C(=O)c2c(O)ccc(O)c2C1=O`, the IC50 turned out to be 9.6 µM in assay [1], 14.7 µM in assay [2] and 6.1 µM in assay [3].
